Experimental data published in patent US20230381142A1, “ANTILEISHMANIAL COMPOUNDS, COMPOSITIONS AND USE THEREOF” (TRUSTEES OF BOSTON UNIVERSITY, priority 2022, published 2023).
In brackets after ≈: the same amount, converted by molar mass.

Columns and labels:
[1] = test system: L. donovani intracellular amastigotes infecting THP-1 macrophages; test: GSK intramacrophage L. donovani assay (LD AMMAC, inMac; Assay Conditions C); format: cell-based; settings: Leishmania donovani; growth inhibition of L. donovani intracellular amastigotes infecting THP-1 macrophages; read-out: LD AMMAC EC50
Outline: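 L. donovani amastigotes within THP-1 macrophages; EC50 based on average intracellular amastigotes per infected cell (AMMAC). Infected-cell percentage (INFCELL) and host-cell number (MAC) also read, the latter as toxicity output.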

host THP-1 macrophages = test: GSK inMac assay, host cell toxicity readout (LD MAC); format: cell-based, human; settings: Homo sapiens, THP-1, cytotoxicity against host THP-1 macrophages
Outline: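 Intramacrophage L. donovani assay in THP-1 macrophages; host toxicity taken from host cell number per well, giving MAC EC50. Run alongside amastigote-per-cell and infected-cell readouts in the same wells.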

HepG2 cells = test: HepG2 cytotoxicity; format: cell-based; settings: Homo sapiens; toxicity against HepG2 cells
Method: Given the literature precedents described above and the apparent narrow tolerance for R^3 substitutions observed in the primary screen compounds, a thorough and methodical assessment was undertaken of tolerated groups at the three points of diversity (R^1/R^2/R^3) for the core. At this stage of the project, all analogues were assessed using a battery of assays performed in-house at GlaxoSmithKline. For antileishmanial activity, GSK's inMac assay was utilized. This assay provides two readouts of compound potency: average number of intracellular amastigotes per infected cell (AMMAC) EC50, percentage of infected cells per well (INFCELL) EC50, as well as a toxicity output derived from the number of host cells (MAC EC50). In addition, compounds were assessed for toxicity against HepG2 cells (HEPG2 EC50). Here, AMMAC EC50 values were focused on for relative potency assessments. […] It should be noted that for all compounds assessed in this project, the measured toxicity against THP-1 macrophages either equaled or exceeded that of HepG2 hepatocytes, therefore the MAC SI is used here as the more conservative estimate of therapeutic index.

[2] = Kinetic aqueous solubility by CLND; format: physicochemical; settings: kinetic from dmso stock, high-throughput CLND
Method: Solubility of compounds using ChemiLuminescent Nitrogen Detection (CLND) was measured as described. Solubility of compounds using Charged Aerosol Detection (CAD) was measured as described. Solubility of solid compounds in Fasted Simulated Intestinal Fluid (FaSSIF) was measured as described.

[3] = Artificial membrane permeability (AMP); format: in vitro ADME; settings: PAMPA, pH 7.4
Method: Passive permeability of compounds via rate of permeation through an artificial phospholipid membrane at pH 7.4 was measured in a high-throughput format, in duplicate. A solution of 1.8% phosphatidylcholine in 1% decane was added to a 96-well Millicell filter plate along with 250 μL of 50 mM phosphate buffer, pH 7.4 on the donor side, and 100 μL of the same buffer solution on the receiver side. The assay plate was shaken for 45 minutes before adding test compounds. Test compounds were then added to the filter plate and then incubated at room temperature with shaking for three hours. The donor and receiver solutions were next transferred to a 384-well plate for analysis by LC/MS.

human serum albumin = human serum albumin (Homo sapiens, UniProt P02768); test: Human serum albumin (HSA) binding, chromatographic; format: in vitro ADME
Method: The percentage of compound bound to human serum albumin was measured using a chromatographic method as described. Briefly, each compound was assayed on an immobilized HSA column and gradient retention times measured, with chromatographic peak detection by UV. Each retention time was then converted to a % HSA bound value using a calibration set of compounds with a known % HSA binding.

[4] = Property forecast index (PFI = ChromLogD7.4 + aromatic rings); format: physicochemical
Method: At the outset of the project, compound 1 was evaluated against GSK's established criteria for antileishmanial compound advancement (Table 2). Some of these assessments were performed on racemic 1, while chiral separation was also pursued of the 1 racemate to determine the active enantiomer. […] Based on this promising profile, it progressed into medicinal chemistry optimization to better understand structure-activity relationships (SAR) toward improved potency, as well as structure-property relationships (SPR) with an eye toward reducing PFI and plasma protein binding.

[5] = aqueous (not further specified)
[6] = aqueous medium (not further specified)

Sequence of human serum albumin (P02768 25-609): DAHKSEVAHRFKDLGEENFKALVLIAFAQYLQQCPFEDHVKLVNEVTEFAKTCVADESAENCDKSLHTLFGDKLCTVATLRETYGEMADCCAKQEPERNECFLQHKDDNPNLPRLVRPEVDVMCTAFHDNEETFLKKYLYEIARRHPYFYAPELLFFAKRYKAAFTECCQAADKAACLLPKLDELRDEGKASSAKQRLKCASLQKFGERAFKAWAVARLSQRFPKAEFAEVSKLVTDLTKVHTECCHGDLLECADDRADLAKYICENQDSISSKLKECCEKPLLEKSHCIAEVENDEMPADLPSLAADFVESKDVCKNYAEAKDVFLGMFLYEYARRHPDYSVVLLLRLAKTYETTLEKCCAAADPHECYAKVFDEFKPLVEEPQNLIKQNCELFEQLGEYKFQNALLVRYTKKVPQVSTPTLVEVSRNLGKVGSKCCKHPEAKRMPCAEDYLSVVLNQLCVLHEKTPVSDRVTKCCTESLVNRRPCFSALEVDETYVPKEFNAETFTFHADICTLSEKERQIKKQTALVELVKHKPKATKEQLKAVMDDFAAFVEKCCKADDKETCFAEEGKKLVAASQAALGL

Row | SMILES | EC50 [1] [µM] | EC50 (host THP-1 macrophages) [µM] | EC50 (HepG2 cells) [µM] | solubility [2, 5] [µM] | Papp at 3 h [3] [×10⁻⁶ cm/s] | HSA Binding (human serum albumin) [%] | PFI [4] | solubility [2, 6] [µM] | solubility ([2]; aqueous medium) [µM]
1 | CC(C)Cc1n[nH]c2c1C(c1ccc(F)cc1)N(c1ccc(Br)cc1)C2=O (centres unmarked) [Compound 24, 5-(4-bromophenyl)-4-(4-fluorophenyl)-3-isobutyl-4,5-dihydropyrrolo[3,4-c]pyrazol-6(1H)-one] | 1.3 | 15.8 | 39.8 | 9 (≈ 3.85 µg/mL) | 32 | 97.9 | 9.7 | – | –
2 | CC(C)Cc1n[nH]c2c1C(c1ccc(F)cc1)N(c1ccc(C(C)(C)C)cc1)C2=O (centres unmarked) [Compound 25] | 10 | > 50 | 50.1 | < 1 | 13 | 97.9 | 10.5 | – | –
3 | COC(=O)c1ccc(N2C(=O)c3[nH]nc(CC(C)C)c3C2c2ccc(F)cc2)cc1 (centres unmarked) [Compound 26] | 1.6 | 31.6 | 39.8 | 26 (≈ 10.6 µg/mL) | 41 | 97.5 | 8.5 | – | –
4 | CC(C)Cc1n[nH]c2c1C(c1ccc(F)cc1)N(c1ccc(C(=O)O)cc1)C2=O (centres unmarked) [Compound 27] | > 50 | > 50 | > 100 | ≥ 389 | < 0.3 | 95.2 | 4.9 | – | –
5 | COc1ccccc1N1C(=O)c2[nH]nc(CC(C)C)c2C1c1ccc(F)cc1 (centres unmarked) [Compound 29] | 20 | > 50 | 79.4 | – | 59 | 97.5 | 8.5 | 240 (≈ 91.1 µg/mL) | –
6 | COc1cccc(N2C(=O)c3[nH]nc(CC(C)C)c3C2c2ccc(F)cc2)c1 (centres unmarked) [Compound 30] | 12.6 | 31.6 | 63.1 | – | 37 | 97.3 | 8.4 | 64 (≈ 24.3 µg/mL) | –
7 | COc1ccc(N2C(=O)c3[nH]nc(CC(C)C)c3C2c2ccc(F)cc2)cn1 (centres unmarked) [Compound 31] | 10 | > 50 | > 100 | – | 26 | 95.5 | 8.0 | 194 (≈ 73.8 µg/mL) | –
8 | CC(C)Cc1n[nH]c2c1C(c1ccc(F)cc1)N(c1cccnc1)C2=O (centres unmarked) [Compound 32] | 25.1 | > 50 | > 100 | – | 47 | 93.4 | 7.2 | 182 (≈ 63.8 µg/mL) | –
9 | CC(C)Cc1n[nH]c2c1C(c1ccc(F)cc1)N(c1ccccn1)C2=O (centres unmarked) [Compound 33] | 20 | > 50 | > 100 | – | 20 | 96.6 | 8.5 | 219 (≈ 76.7 µg/mL) | –
10 | COc1ccc(CN2C(=O)c3[nH]nc(CC(C)C)c3C2c2ccc(F)cc2)cc1 (centres unmarked) [Compound 34] | 12.6 | 31.6 | 50.1 | – | 55 | 98.2 | 9.0 | 45 (≈ 17.7 µg/mL) | –
11 | Cc1ccc(CN2C(=O)c3[nH]nc(CC(C)C)c3C2c2ccc(F)cc2)o1 (centres unmarked) [Compound 35] | 15.8 | 39.8 | 50.1 | – | 37 | 97.2 | 8.9 | 19 (≈ 6.98 µg/mL) | –
12 | COC1CCC(N2C(=O)c3[nH]nc(CC(C)C)c3C2c2ccc(F)cc2)CC1 (centres unmarked) [Compound 36] | 25.1 | > 50 | > 100 | – | 57 | 92.1 | 7.3 | ≥ 450 | –
13 | CC(C)Cc1n[nH]c2c1C(c1ccc(F)cc1)N(C1CCC(N(C)C)CC1)C2=O (centres unmarked) [Compound 37] | 25.1 | > 50 | > 100 | – | 13 | 81.1 | 4.6 | ≥ 446 | –
14 | CC(C)Cc1n[nH]c2c1C(c1ccc(F)cc1)N(C1CCOCC1)C2=O (centres unmarked) [Compound 38] | 31.6 | > 50 | > 100 | – | 49 | 90.2 | 6.5 | ≥ 381 | –
15 | CC(C)Cc1n[nH]c2c1C(c1ccc(F)cc1)N(CC1CCN(C)C1)C2=O (centres unmarked) [Compound 40] | > 50 | > 50 | > 100 | – | < 1 | 77.5 | 4.8 | ≥ 351 | –
16 | COCCN1C(=O)c2[nH]nc(CC(C)C)c2C1c1ccc(F)cc1 (centres unmarked) [Compound 41] | > 50 | > 50 | > 100 | – | 52 | 90.2 | 6.7 | ≥ 421 | –
17 | COc1ccc(N2C(=O)c3[nH]nc(CC(C)C)c3C2c2ccc(F)cc2)c(OC)c1 (centres unmarked) [Compound 43] | 20 | 31.6 | 63.1 | – | 17 | 96.2 | 8.5 | – | 138 (≈ 56.5 µg/mL)
18 | COc1ccc(N2C(=O)c3[nH]nc(CC(C)C)c3C2c2ccc(Cl)cc2)cc1 (centres unmarked) [Compound 47] | 4 | 15.8 | 50.1 | – | 33 | 96.9 | 9.2 | 22 (≈ 8.71 µg/mL) | –
19 | COc1ccc(N2C(=O)c3[nH]nc(CC(C)C)c3C2c2ccc(Br)cc2)cc1 (centres unmarked) [Compound 48] | 6.3 | 15.8 | 50.1 | – | 42 | 97.2 | 9.3 | 9 (≈ 3.96 µg/mL) | –
20 | COc1ccc(N2C(=O)c3[nH]nc(CC(C)C)c3C2c2ccc(C(F)(F)F)cc2)cc1 (centres unmarked) [Compound 49] | 8 | 15.8 | 50.1 | – | 21 | 96.9 | 9.3 | 12 (≈ 5.15 µg/mL) | –
21 | COc1ccc(N2C(=O)c3[nH]nc(CC(C)C)c3C2c2ccc(C(=O)O)cc2)cc1 (centres unmarked) [Compound 50] | > 50 | > 50 | > 100 | – | < 0.3 | 90.7 | 4.5 | ≥ 470 | –
22 | COC(=O)c1ccc(C2c3c(CC(C)C)n[nH]c3C(=O)N2c2ccc(OC)cc2)cc1 (centres unmarked) [Compound 51] | 25.1 | 39.8 | 63.1 | – | 38 | 95 | 8.2 | 44 (≈ 18.5 µg/mL) | –
23 | COc1ccc(N2C(=O)c3[nH]nc(CC(C)C)c3C2C2CCCCC2)cc1 (centres unmarked) [Compound 52] | 7.9 | 25.1 | 50.1 | – | 33 | 97.6 | 8.5 | 29 (≈ 10.7 µg/mL) | –
24 | COc1ccc(N2C(=O)c3[nH]nc(CC(C)C)c3C2C2CCCC2)cc1 (centres unmarked) [Compound 53] | 12.6 | 20 | > 100 | – | 59 | 96.3 | 8.1 | 119 (≈ 42.1 µg/mL) | –
25 | COc1ccc(N2C(=O)c3[nH]nc(CC(C)C)c3C2c2ccccc2F)cc1 (centres unmarked) [Compound 54] | 3.2 | 31.6 | 31.6 | – | 23 | 97.3 | 8.6 | 75 (≈ 28.5 µg/mL) | –
26 | COc1ccc(N2C(=O)c3[nH]nc(CC(C)C)c3C2c2ccccc2Br)cc1 (centres unmarked) [Compound 56] | 0.5 | 25.1 | 39.8 | – | 30 | 97.1 | 9.2 | 12 (≈ 5.28 µg/mL) | –
